According to patent US20030129629A1, “Methods and compositions for the identification, assessment, prevention, and therapy of human cancers” (Millennium Pharmaceuticals, Inc., priority 2000, published 2003):
Where a name gives a salt, the structure may show the parent alone.

System: 60 cancer cell lines (NCI 60 cancer cell line series)
Test: NCI-DTP in vitro cancer screen, sulforhodamine B (SRB) growth inhibition, 48 hour exposure
Type: cell-based, human
Outline: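 NCI-DTP panel of 60 cancer cell lines plated day 0 at line-specific densities, exposed from day 1 to compound at 5 ten-fold-spaced doses in duplicate wells. After 48 h, cell mass stained with sulforhodamine B; −log GI50 derived from dose–response curves, averaged, and classed Low, Medium or High sensitivity.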

CC[C@]1(O)C[C@@H]2CN(CCc3c([nH]c4ccccc34)[C@@](C(=O)OC)(c3cc4c(cc3OC)N(C)[C@H]3[C@@](O)(C(=O)OC)[C@H](OC(C)=O)[C@]5(CC)C=CCN6CC[C@]43[C@@H]65)C2)C1 [Vinblastine sulfate]
classification of cell line as Low(1), Medium(2), High(3) sensitivity to compound (Breast HS-578T CL5006): 3 | classification of cell line as Low(1), Medium(2), High(3) sensitivity to compound (Breast MCF7/ADRr CL5002): 1 | classification of cell line as Low(1), Medium(2), High(3) sensitivity to compound (Breast MDA-MB-231 CL5005): 2 | classification of cell line as Low(1), Medium(2), High(3) sensitivity to compound (Breast MDA-MB-435 CL5011): 3 | classification of cell line as Low(1), Medium(2), High(3) sensitivity to compound (Breast MDA-N CL5012): 3 | classification of cell line as Low(1), Medium(2), High(3) sensitivity to compound (CNS SF-268 CL12014): 2 | classification of cell line as Low(1), Medium(2), High(3) sensitivity to compound (CNS SF-295 CL12015): 2 | classification of cell line as Low(1), Medium(2), High(3) sensitivity to compound (CNS SF-539 CL12016): 2 | classification of cell line as Low(1), Medium(2), High(3) sensitivity to compound (CNS SNB-19 CL12002): 2 | classification of cell line as Low(1), Medium(2), High(3) sensitivity to compound (CNS U251(I) CL12009): 2 | classification of cell line as Low(1), Medium(2), High(3) sensitivity to compound (Colon HCC-2998 CL4002): 2 | classification of cell line as Low(1), Medium(2), High(3) sensitivity to compound (Colon HCT-15 CL4015): 1 | classification of cell line as Low(1), Medium(2), High(3) sensitivity to compound (Colon KM12 CL4017): 2 | classification of cell line as Low(1), Medium(2), High(3) sensitivity to compound (Colon SW-620 CL4009): 2 | classification of cell line as Low(1), Medium(2), High(3) sensitivity to compound (Leukemia CCRF-CEM(I) CL7003): 2 | classification of cell line as Low(1), Medium(2), High(3) sensitivity to compound (Leukemia HL-60(I) CL7008): 3 | classification of cell line as Low(1), Medium(2), High(3) sensitivity to compound (Leukemia MOLT-4 CL7006): 2 | classification of cell line as Low(1), Medium(2), High(3) sensitivity to compound (Melanoma M14 CL10014): 2 | classification of cell line as Low(1), Medium(2), High(3) sensitivity to compound (Melanoma MALME-3M CL10002): 2 | classification of cell line as Low(1), Medium(2), High(3) sensitivity to compound (Melanoma SK-MEL-2 CL10005): 2 | classification of cell line as Low(1), Medium(2), High(3) sensitivity to compound (Melanoma SK-MEL-5 CL10007): 3 | classification of cell line as Low(1), Medium(2), High(3) sensitivity to compound (Melanoma SK-MEL-28 CL10008): 2 | classification of cell line as Low(1), Medium(2), High(3) sensitivity to compound (Melanoma UACC-62 CL10020): 3 | classification of cell line as Low(1), Medium(2), High(3) sensitivity to compound (NSCLC A549/ATCC CL1004): 2 | classification of cell line as Low(1), Medium(2), High(3) sensitivity to compound (NSCLC EKVX CL1008): 1 | classification of cell line as Low(1), Medium(2), High(3) sensitivity to compound (NSCLC HOP-62 CL1026): 2 | classification of cell line as Low(1), Medium(2), High(3) sensitivity to compound (NSCLC HOP-92 CL1029): 2 | sensitivity classification Low(1)/Medium(2)/High(3) (NSCLC NCI-H23(I) CL1001): 2 | classification of cell line as Low(1), Medium(2), High(3) sensitivity to compound (NSCLC NCI-H226 CL1013): 2 | sensitivity classification Low(1)/Medium(2)/High(3) (NSCLC NCI-H332M CL1017): 2 | sensitivity classification Low(1)/Medium(2)/High(3) (NSCLC NCI-H460 CL1021): 2 | sensitivity classification Low(1)/Medium(2)/High(3) (NSCLC NCI-H522 CL1003): 3 | sensitivity classification Low(1)/Medium(2)/High(3) (Ovarian IGROV1 CL6010): 2 | sensitivity classification Low(1)/Medium(2)/High(3) (Ovarian OVCAR-3 CL6001): 3 | sensitivity classification Low(1)/Medium(2)/High(3) (Ovarian OVCAR-8 CL6005): 2 | sensitivity classification Low(1)/Medium(2)/High(3) (Ovarian SK-OV-3 CL6011): 2 | sensitivity classification Low(1)/Medium(2)/High(3) (Renal 786-0 CL9018): 2 | sensitivity classification Low(1)/Medium(2)/High(3) (Renal CAKI-1 CL9015): 2 | sensitivity classification Low(1)/Medium(2)/High(3) (Renal RXF-393 CL9016): 2 | sensitivity classification Low(1)/Medium(2)/High(3) (Renal SN12C CL9008): 2 | sensitivity classification Low(1)/Medium(2)/High(3) (Renal TK10 CL9024): 1 | sensitivity classification Low(1)/Medium(2)/High(3) (Renal UO-31 CL9004): 1

CC[C@]1(O)C[C@H]2CN(CCc3c([nH]c4ccccc34)[C@@](C(=O)OC)(c3cc4c(cc3OC)N(C=O)[C@H]3[C@@](O)(C(=O)OC)[C@H](OC(C)=O)[C@]5(CC)C=CCN6CC[C@]43[C@@H]65)C2)C1 [Vincristine sulfate]
classification of cell line as Low(1), Medium(2), High(3) sensitivity to compound (Breast BT-549 CL5013): 1 | classification of cell line as Low(1), Medium(2), High(3) sensitivity to compound (Breast HS-578T CL5006): 2 | classification of cell line as Low(1), Medium(2), High(3) sensitivity to compound (Breast MCF7(I) CL5001): 2 | classification of cell line as Low(1), Medium(2), High(3) sensitivity to compound (Breast MCF7/ADRr CL5002): 2 | classification of cell line as Low(1), Medium(2), High(3) sensitivity to compound (Breast MDA-MB-231 CL5005): 2 | classification of cell line as Low(1), Medium(2), High(3) sensitivity to compound (Breast MDA-MB-435 CL5011): 2 | classification of cell line as Low(1), Medium(2), High(3) sensitivity to compound (Breast MDA-N CL5012): 2 | classification of cell line as Low(1), Medium(2), High(3) sensitivity to compound (Breast T-47D CL5014): 1 | classification of cell line as Low(1), Medium(2), High(3) sensitivity to compound (CNS SF-268 CL12014): 2 | classification of cell line as Low(1), Medium(2), High(3) sensitivity to compound (CNS SF-295 CL12015): 3 | classification of cell line as Low(1), Medium(2), High(3) sensitivity to compound (CNS SF-539 CL12016): 3 | classification of cell line as Low(1), Medium(2), High(3) sensitivity to compound (CNS SNB-19 CL12002): 2 | classification of cell line as Low(1), Medium(2), High(3) sensitivity to compound (CNS SNB-75(I) CL12005): 2 | classification of cell line as Low(1), Medium(2), High(3) sensitivity to compound (CNS U251(I) CL12009): 2 | classification of cell line as Low(1), Medium(2), High(3) sensitivity to compound (Colon COLO-250 CL4010): 2 | classification of cell line as Low(1), Medium(2), High(3) sensitivity to compound (Colon HCC-2998 CL4002): 2 | classification of cell line as Low(1), Medium(2), High(3) sensitivity to compound (Colon HCT-15 CL4015): 2 | classification of cell line as Low(1), Medium(2), High(3) sensitivity to compound (Colon HCT-116 CL4003): 2 | classification of cell line as Low(1), Medium(2), High(3) sensitivity to compound (Colon HT29(I) CL4001): 3 | classification of cell line as Low(1), Medium(2), High(3) sensitivity to compound (Colon KM12 CL4017): 3 | classification of cell line as Low(1), Medium(2), High(3) sensitivity to compound (Colon SW-620 CL4009): 3 | classification of cell line as Low(1), Medium(2), High(3) sensitivity to compound (Leukemia CCRF-CEM(I) CL7003): 3 | classification of cell line as Low(1), Medium(2), High(3) sensitivity to compound (Leukemia HL-60(I) CL7008): 3 | classification of cell line as Low(1), Medium(2), High(3) sensitivity to compound (Leukemia K562(I) CL7005): 3 | classification of cell line as Low(1), Medium(2), High(3) sensitivity to compound (Leukemia MOLT-4 CL7006): 3 | classification of cell line as Low(1), Medium(2), High(3) sensitivity to compound (Leukemia RPMI-8226(I) CL7010): 3 | classification of cell line as Low(1), Medium(2), High(3) sensitivity to compound (Leukemia SR CL7019): 3 | classification of cell line as Low(1), Medium(2), High(3) sensitivity to compound (Melanoma LOX IMVI CL10001): 3 | classification of cell line as Low(1), Medium(2), High(3) sensitivity to compound (Melanoma M14 CL10014): 2 | classification of cell line as Low(1), Medium(2), High(3) sensitivity to compound (Melanoma MALME-3M CL10002): 2 | classification of cell line as Low(1), Medium(2), High(3) sensitivity to compound (Melanoma SK-MEL-2 CL10005): 2 | classification of cell line as Low(1), Medium(2), High(3) sensitivity to compound (Melanoma SK-MEL-5 CL10007): 3 | classification of cell line as Low(1), Medium(2), High(3) sensitivity to compound (Melanoma SK-MEL-28 CL10008): 1 | classification of cell line as Low(1), Medium(2), High(3) sensitivity to compound (Melanoma UACC-62 CL10020): 2 | classification of cell line as Low(1), Medium(2), High(3) sensitivity to compound (Melanoma UACC-257 CL10021): 2 | classification of cell line as Low(1), Medium(2), High(3) sensitivity to compound (NSCLC A549/ATCC CL1004): 2 | classification of cell line as Low(1), Medium(2), High(3) sensitivity to compound (NSCLC EKVX CL1008): 1 | classification of cell line as Low(1), Medium(2), High(3) sensitivity to compound (NSCLC HOP-62 CL1026): 2 | classification of cell line as Low(1), Medium(2), High(3) sensitivity to compound (NSCLC HOP-92 CL1029): 2 | sensitivity classification Low(1)/Medium(2)/High(3) (NSCLC NCI-H23(I) CL1001): 3 | classification of cell line as Low(1), Medium(2), High(3) sensitivity to compound (NSCLC NCI-H226 CL1013): 2 | sensitivity classification Low(1)/Medium(2)/High(3) (NSCLC NCI-H332M CL1017): 2 | sensitivity classification Low(1)/Medium(2)/High(3) (NSCLC NCI-H460 CL1021): 3 | sensitivity classification Low(1)/Medium(2)/High(3) (NSCLC NCI-H522 CL1003): 3 | sensitivity classification Low(1)/Medium(2)/High(3) (Ovarian IGROV1 CL6010): 3 | sensitivity classification Low(1)/Medium(2)/High(3) (Ovarian OVCAR-3 CL6001): 3 | sensitivity classification Low(1)/Medium(2)/High(3) (Ovarian OVCAR-4 CL6002): 2 | sensitivity classification Low(1)/Medium(2)/High(3) (Ovarian OVCAR-5 CL6003): 1 | sensitivity classification Low(1)/Medium(2)/High(3) (Ovarian OVCAR-8 CL6005): 3 | sensitivity classification Low(1)/Medium(2)/High(3) (Ovarian SK-OV-3 CL6011): 2 | sensitivity classification Low(1)/Medium(2)/High(3) (Prostate DU-145 CL11003): 2 | sensitivity classification Low(1)/Medium(2)/High(3) (Prostate PC-3(I) CL11001): 2 | sensitivity classification Low(1)/Medium(2)/High(3) (Renal 786-0 CL9018): 2 | sensitivity classification Low(1)/Medium(2)/High(3) (Renal A498 CL9013): 3 | sensitivity classification Low(1)/Medium(2)/High(3) (Renal ACHN CL9023): 2 | sensitivity classification Low(1)/Medium(2)/High(3) (Renal CAKI-1 CL9015): 2 | sensitivity classification Low(1)/Medium(2)/High(3) (Renal RXF-393 CL9016): 2 | sensitivity classification Low(1)/Medium(2)/High(3) (Renal SN12C CL9008): 2 | sensitivity classification Low(1)/Medium(2)/High(3) (Renal TK10 CL9024): 1 | sensitivity classification Low(1)/Medium(2)/High(3) (Renal UO-31 CL9004): 1
